Values joined by “and” are separate entries in the source; they are usually repeats but may differ in a detail not shown here. Equal entries are not always repeated.
target: T1, human TG2 (Homo sapiens, UniProt P21980); assay: fluorescent screening assay for human TG2; type: biochemical; conditions: 20 nM TG2, 8 μM N,N-dimethylated Casein, 16 μM KxD, pH 7.4, 37° C
T1 sequence (P21980 1-687): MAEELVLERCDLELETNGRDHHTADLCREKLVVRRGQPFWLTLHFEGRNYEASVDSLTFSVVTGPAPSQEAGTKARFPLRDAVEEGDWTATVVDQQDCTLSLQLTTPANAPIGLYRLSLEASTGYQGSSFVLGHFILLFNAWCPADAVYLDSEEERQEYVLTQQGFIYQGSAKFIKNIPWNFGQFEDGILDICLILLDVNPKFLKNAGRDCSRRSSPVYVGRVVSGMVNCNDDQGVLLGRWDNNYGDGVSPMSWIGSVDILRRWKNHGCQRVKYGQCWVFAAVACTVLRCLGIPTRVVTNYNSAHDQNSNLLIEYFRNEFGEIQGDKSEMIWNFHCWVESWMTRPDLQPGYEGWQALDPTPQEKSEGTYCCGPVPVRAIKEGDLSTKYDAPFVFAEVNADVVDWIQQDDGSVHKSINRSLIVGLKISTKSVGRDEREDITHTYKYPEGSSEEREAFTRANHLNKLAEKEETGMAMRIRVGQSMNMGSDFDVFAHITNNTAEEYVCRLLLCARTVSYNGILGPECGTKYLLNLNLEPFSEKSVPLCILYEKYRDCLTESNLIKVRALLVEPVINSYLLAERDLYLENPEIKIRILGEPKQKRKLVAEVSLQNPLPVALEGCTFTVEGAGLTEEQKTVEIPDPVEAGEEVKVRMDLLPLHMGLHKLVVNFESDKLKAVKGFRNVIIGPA
Procedure: (§1) The fluorescent screening assay for human TG2 was performed as described herein: Assay conditions were 20 nM TG2, 8 μM N,N-dimethylated Casein (NMC) and 16 μM K×D (used for all transglutaminase assays) in 25 mM Hepes, pH 7.4, 250 mM NaCl, 2 mM MgCl2, 0.5 mM CaCl2, 0.2 mM DTT, 0.05% Pluronic F-127 at 37° C. A time point was taken with a microplate reader (Safire or Ultra, Tecan; ex: 350 nm, em: 535 nm) every 3 minutes for up to 2 hours and the initial linear reaction progress was used to determine the reaction velocity as a measure for enzyme activity. Assay conditions were identical for human TG6 and similar for human TG1 and mouse TG2 apart from enzyme concentration (mTG2 at 5 nM; TG1 at 10 nM) and CaCl2 concentration (0.2 mM for mTG2; 0.05 mM for TG1). Factor XIIIa was activated using 0.1 μg/μl thrombin (Sigma) in 35 mM Tris pH 8.0 for 20 min at 30° C. and the transamidation reaction was performed with 20 nM Factor XIIIa in 50 mM Tris pH 8.0, 1.25 mM CaCl2, 0.05% Pluronic, 0.2 mM DTT. TG3 was activated with 0.02 μg/μl thrombin under the same conditions as Factor XIIIa and assay conditions were 10 nM TG3 in 50 mM Hepes, pH 8, 20 mM CaCl2, 0.2 mM DTT, 0.05% Pluronic F-127.
as §1, with “A” for “The”

Structure (SMILES)	IC50
CC(C)(C)OC(=O)N1CCN(S(=O)(=O)c2ccc(NC(=O)/C=C/Cl)cc2)CC1 [(E)-tert-butyl 4-(4-(3-chloroacrylamido)phenylsulfonyl)piperazine-1-carboxylate]	1000 to 25000 nM
C=CC(=O)Nc1ccc(S(=O)(=O)NC2CCCN(CC)C2)cc1 (centres unmarked) [N-[4-(1-Ethyl-piperidin-3-ylsulfamoyl)-phenyl]-acrylamide]	1000 to 25000 nM
C=CC(=O)Nc1ccc(S(=O)(=O)N2CCN(c3nccc4occc34)CC2)cc1 [N-[4-(4-Furo[3,2-c]pyridin-4-yl-piperazine-1-sulfonyl)-phenyl]-acrylamide]	< 100 nM and 100 to 1000 nM
C=CC(=O)Nc1ccc(S(=O)(=O)N2CCNCC2)c(C)c1 [N-[3-Methyl-4-(piperazine-1-sulfonyl)-phenyl]-acrylamide]	1000 to 25000 nM
C=CC(=O)Nc1ccc(S(=O)(=O)N2CCN(C(=O)OCc3c(F)cccc3F)CC2)cc1 [4-(4-Acryloylamino-benzenesulfonyl)-piperazine-1-carboxylic acid 2,6-difluoro-benzyl ester]	100 to 1000 nM and < 100 nM
C=CC(=O)Nc1ccc(S(=O)(=O)NCc2ccc(-c3ccccc3)nc2)cc1 [N-{4-[(6-Phenyl-pyridin-3-ylmethyl)-sulfamoyl]-phenyl}-acrylamide]	1000 to 25000 nM
C/C=C\C(=O)Nc1ccc(S(=O)(=O)N2CCN(C(=O)OC(C)(C)C)CC2)cc1 [(Z)-tert-butyl 4-(4-but-2-enamidophenylsulfonyl)piperazine-1-carboxylate]	1000 to 25000 nM
C=CC(=O)Nc1ccc(S(=O)(=O)N(C)CCN(C)C(=O)OCc2ccccc2)cc1 [{2-[(4-Acryloylamino-benzenesulfonyl)-methyl-amino]-ethyl}-methyk-carbamic acid benzyl ester]	1000 to 25000 nM
C=CC(=O)Nc1ccc(S(=O)(=O)N2CCC(N(C)C(=O)OC(C)(C)C)CC2)cc1 [[1-(4-Acryloylamino-benzenesulfonyl)-piperidin-4-yl]-methyl-carbamic acid tert-butyl ester]	100 to 1000 nM and < 100 nM
C=CC(=O)Nc1ccc(S(=O)(=O)N2CCN(c3ccccn3)CC2)cc1 [N-[4-(4-Pyridin-2-yl-piperazine-1-sulfonyl)-phenyl]-acrylamide]	100 to 1000 nM and < 100 nM
C=CC(=O)Nc1ccc(S(=O)(=O)N2CCN(C(=O)OC(C)(C)C)[C@@H](C(C)C)C2)cc1 [4-(4-Acryloylamino-benzenesulfonyl)-2-isopropyl-piperazine-1-carboxylic acid tert-butyl ester]	100 to 1000 nM and < 100 nM
C=CC(=O)Nc1ccc(S(=O)(=O)N2CCN(c3nccc4ccccc34)CC2)cc1 [N-[4-(4-Isoquinolin-1-yl-piperazine-1-sulfonyl)-phenyl]-acrylamide]	< 100 nM and 100 to 1000 nM
C=CC(=O)Nc1ccc(S(=O)(=O)N2CCN(C(=O)OCc3cccc(F)c3F)CC2)cc1 [4-(4-Acryloylamino-benzenesulfonyl)-piperazine-1-carboxylic acid 2,3-difluoro-benzyl ester]	100 to 1000 nM and < 100 nM
C=CC(=O)Nc1ccc(S(=O)(=O)N2CCN(C(=O)Cc3ccc4ccccc4c3)CC2)cc1 [N-{4-[4-(2-Naphthalen-2-yl-acetyl)-piperazine-1-sulfonyl]-phenyl}-acrylamide]	100 to 1000 nM and < 100 nM
C=CC(=O)Nc1ccc(S(=O)(=O)N2CCCC2c2ccc(C(F)(F)F)cc2)cc1 (centres unmarked) [N-{4-[2-(4-Trifluoromethyl-phenyl)-pyrrolidine-1-sulfonyl]-phenyl}-acrylamide]	1000 to 25000 nM
C=CC(=O)Nc1ccc(S(=O)(=O)N2CCN(c3nc4ccccc4s3)CC2)cc1 [N-[4-(4-Benzothiazol-2-yl-piperazine-1-sulfonyl)-phenyl]-acrylamide]	< 100 nM and 100 to 1000 nM
C=CC(=O)Nc1ccc(S(=O)(=O)N2CCN(c3cc(C)ccn3)CC2)cc1 [N-{4-[4-(4-Methyl-pyridin-2-yl)-piperazine-1-sulfonyl]-phenyl}-acrylamide]	< 100 nM and 100 to 1000 nM
C=CC(=O)Nc1ccc(S(=O)(=O)N2CCNC(c3ccc(C)o3)C2)cc1 (centres unmarked) [N-{4-[3-(5-Methyl-furan-2-yl)-piperazine-1-sulfonyl]-phenyl}-acrylamide]	1000 to 25000 nM
C=CC(=O)Nc1cccc(S(=O)(=O)N2CCNCC2)c1 [N-[3-(piperazine-1-sulfonyl)-phenyl]-acrylamide]	1000 to 25000 nM
C=CC(=O)Nc1ccc(S(=O)(=O)N2CCN(C(=O)OCc3ccc(C(C)(C)C)cc3)CC2)cc1 [4-(4-Acryloylamino-benzenesulfonyl)-piperazine-1-carboxylic acid 4-tert-butyl-benzyl ester]	1000 to 25000 nM
C=CC(=O)Nc1ccc(S(=O)(=O)N2CCN(C(=O)Cc3ccc(Oc4ccccc4)cc3)CC2)cc1 [N-(4-{4-[2-(4-Phenoxy-phenyl)-acetyl]-piperazine-1-sulfonyl}-phenyl)-acrylamide]	100 to 1000 nM and < 100 nM
C=CC(=O)Nc1cccc(S(=O)(=O)N2CCN(CCCc3ccccc3)CC2)c1 [N-{3-[4-(3-Phenyl-propyl)-piperazine-1-sulfonyl]-phenyl}-acrylamide]	1000 to 25000 nM

More lines, now with the values ahead:

IC50	Structure (SMILES)
100 to 1000 nM and < 100 nM	C=CC(=O)Nc1ccc(S(=O)(=O)N2CCN(C(=O)N3CCCC3)CC2)cc1 [N-{4-[4-(Pyrrolidine-1-carbonyl)-piperazine-1-sulfonyl]-phenyl}-acrylamide]
100 to 1000 nM and < 100 nM	C=CC(=O)Nc1ccc(S(=O)(=O)N2CCN(C(=O)OCc3ccccc3Cl)CC2)cc1 [4-(4-Acryloylamino-benzenesulfonyl)-piperazine-1-carboxylic acid 2-chloro-benzyl ester]
1000 to 25000 nM	C=CC(=O)Nc1ccc(S(=O)(=O)N2CCC(N)CC2)cc1 [N-[4-(4-Amino-piperidine-1-sulfonyl)-phenyl]-acrylamide]
100 to 1000 nM and < 100 nM	C=CC(=O)Nc1ccc(S(=O)(=O)N2CCN(C(=O)NC3C4CC5CC(C4)CC3C5)CC2)cc1 (centres unmarked) [4-(4-Acryloylamino-benzenesulfonyl)-piperazine-1-carboxylic acid adamantan-2-ylamide]
100 to 1000 nM and < 100 nM	C=CC(=O)Nc1ccc(S(=O)(=O)N2CCN(C(=O)N3CCCCC3)CC2)cc1 [N-{4-[4-(Piperidine-1-carbonyl)-piperazine-1-sulfonyl]-phenyl}-acrylamide]
100 to 1000 nM and < 100 nM	C=CC(=O)Nc1ccc(S(=O)(=O)N2CCN(C(=O)C3CC3)CC2)cc1 [N-[4-(4-Cyclopropanecarbonyl-piperazine-1-sulfonyl)-phenyl]-acrylamide]
100 to 1000 nM and < 100 nM	C=CC(=O)Nc1ccc(S(=O)(=O)N2CCN(C(=O)C3CCOCC3)CC2)cc1 [N-{4-[4-(Tetrahydro-pyran-4-carbonyl)-piperazine-1-sulfonyl]-phenyl}-acrylamide]
100 to 1000 nM and < 100 nM	C=CC(=O)Nc1ccc(S(=O)(=O)N2CCN(C(=O)N3CCC(F)(F)CC3)CC2)cc1 [N-{4-[4-(4,4-Difluoro-piperidine-1-carbonyl)-piperazine-1-sulfonyl]-phenyl}-acrylamide]
100 to 1000 nM and < 100 nM	C=CC(=O)Nc1ccc(S(=O)(=O)N2CCN(C(=O)C3CCCC3)CC2)cc1 [N-[4-(4-Cyclopentanecarbonyl-piperazine-1-sulfonyl)-phenyl]-acrylamide]
100 to 1000 nM and < 100 nM	C=CC(=O)Nc1ccc(S(=O)(=O)N2CCN(C(=O)N3C[C@@H](C)O[C@@H](C)C3)CC2)cc1 [N-{4-[4-(2,6-Dimethyl-morpholine-4-carbonyl)-piperazine-1-sulfonyl]-phenyl}-acrylamide]

From patent US8946197B2, “Transglutaminase TG2 inhibitors, pharmaceutical compositions, and methods of use thereof” (CHDI Foundation, Inc., priority 2009, dated 2015)
